Patent US20030134859A1 (SANKYO COMPANY, LIMITED, priority 2000, published 2003)

What was measured:
[1] = system: Rat white adipocytes; test: Stimulation of differentiation of the adipocytes (Oil Red O); format: cell-based; conditions: 100 nM test compound, 5 days, Oil Red O ABS550, control = 100%, blank = 0%, Table 7; for activity at 0.1 µM: Rattus norvegicus, Adipocyte, 120 h, read-out: Rate of Differentiation (%)
Procedure, shortened: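 Rat white adipocytes, 5,000 cells/well, cultured 5 days in differentiation-inducing medium with test compound at final 100 nM (0.1% DMSO). Cells fixed, stained with Oil Red O, dye extracted in DMSO and read at 550 nm; differentiation rate expressed relative to vehicle control (100%) and cell-free blank (0%).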

[2] = system: TNF-α production; test: Inhibitory activity against cytokine (TNF-α) production in LPS-stimulated RAW264.7 cells; format: cell-based, mouse; conditions: 1 μM test compound, LPS 10 ng/mL; for inhibition at 1 µM: Mus musculus, RAW264.7, 15 h
Procedure, shortened: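 Mouse RAW264.7 macrophages (5,000 cells/well) stimulated with 10 ng/mL LPS (final) and treated with test compound at 1 μM final for 15 h at 37 °C. Supernatant mouse TNF-α measured by ELISA; % inhibition = 100−(A−B)/(C−B)×100, using unstimulated and LPS-only controls.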

Cc1csc(NC(=O)c2cc([N+](=O)[O-])ccc2Cl)n1 [Example 3, N-(4-Methylthiazol-2-yl)-(2-chloro-5-nitrophenyl)carboxamide]
activity at 0.1 µM [1]: 126% | inhibition at 1 µM [2]: 17%

O=C(Nc1nc2ccc(Cc3ccc(F)cc3)cc2s1)c1cc([N+](=O)[O-])ccc1Cl [Example 90, N-[6-(4-Fluorobenzyl)benzothiazol-2-yl]-(2-chloro-5-nitrophenyl)carboxamide]
activity at 0.1 µM [1]: 131% | inhibition at 1 µM [2]: 19.4%

O=C(Nc1ccc(-c2ccc(O)cc2)cc1)c1cc([N+](=O)[O-])ccc1Cl [Example 135, N-[4-(4-Hydroxyphenyl)phenyl]-2-(chloro-5-nitrophenyl)carboxamide]
Rate of Differentiation (%) [1]: 128.0% | Inhibitory Activity (%) against TNF-α production ([2]; 15 hr): 16.6%
